Tested on: ATCC27853
Assay: MIC determination, control strain
Assay type: cell-based

Measured: MIC

Method: Determination methods of a Minimal Inhibitory Concentration (MIC) and a Minimum Bactericidal Concentration (MBC) of a test product: the MIC and the MBC of the Pithecellobium clypearia Benth water or ethanol extract to the MDRAB are determined by a microdilution broth method.

Polymycin B [POLB]
1 µg/mL: EA=10% ethanol extract | EA=60% ethanol extract | EA=95% ethanol extract | EA=water extract

From patent US11793849B2, “Method of Chinese herbal medicine extract used for treating multiple diseases caused by drug resistant bacteria infection” (priority 2016, dated 2023)
